Test results taken from ChEMBL document CHEMBL1201862, “PubChem BioAssay data set” (2004).
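Briefly, cells in 96-well plates were exposed to five compound concentrations for 48 h, and endpoints were estimated by linear interpolation. GI50 marks 50% less growth.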 Activity calls are given as the source filed them. No stated cut-off is given here; in the data, active = GI50 up to about 1.1 µM and inactive = higher.

What was measured:
Test in all cases: NCI tumour cell line growth inhibition, 48 h
786-0 = test system: 786-0
A498 = test system: A498
A549 = test system: A549
ACHN = test system: ACHN
CAKI-1 = test system: CAKI-1
CCRF-CEM = test system: CCRF-CEM
DU-145 = test system: DU-145
HCC 2998 = test system: HCC 2998
MCF7 = test system: MCF7
Malme-3M = test system: Malme-3M
OVCAR-4 = test system: OVCAR-4
OVCAR-5 = test system: OVCAR-5
OVCAR-8 = test system: OVCAR-8
RXF 393 = test system: RXF 393
SF-539 = test system: SF-539
SK-MEL-28 = test system: SK-MEL-28
SN12C = test system: SN12C
SR = test system: SR
SW-620 = test system: SW-620
U-251 = test system: U-251

Measured: GI50

C/C1=C\[C@H](C)C[C@H](C)OC(=O)C[C@H](c2ccc(O)cc2)NC(=O)[C@@H](Cc2c(Br)[nH]c3ccccc23)N(C)C(=O)[C@H](C)NC(=O)[C@@H](C)C1 [JASPAMIDE]
active: 786-0 128 nM | A498 22.4 nM | A549 172 nM | ACHN 199 nM | CAKI-1 92 nM | CCRF-CEM 20.9 nM | DU-145 59.4 nM | HCC 2998 49.9 nM | MCF7 89.5 nM | Malme-3M 148 nM | OVCAR-4 173 nM | OVCAR-5 457 nM | OVCAR-8 381 nM | RXF 393 36.9 nM | SF-539 24.9 nM | SK-MEL-28 124 nM | SN12C 361 nM | SR 57.8 nM | SW-620 152 nM | U-251 243 nM
